What all share (assay type): functional
The species named for test [1] is Mus musculus. Put plainly: Sedative activity in mouse.
For test [2], the species on record is Mus musculus. The test can be described thus: Muscle relaxant activity in mouse.
For test [3], the species on record is Mus musculus. Put plainly: Taming activity in mouse assessed as suppression of electrical current-induced aggressive behavior by foot-shock test.
For test [4], the species on record is Mus musculus. Put plainly: Anticonvulsion activity in mouse assessed as protection against pentylenetetrazole-induced convulsion.
The species named for test [5] is Felis catus. The test can be described thus: Muscle relaxant activity in cat suspended by scruff of neck assessed as relaxation of body and hind legs.

Molecules are shown by their SMILES. Calls of active or inactive are those of the source. The rule behind the calls is not given here.

The ED50 is the midpoint of the dose-response relation.

For the compound `O=C1CN=C(c2ccccc2)c2c(Cl)cccc2N1`, the result in test [1], in test [2] and in test [3] was inactive. Besides, in test [4], the “log(1/ED50)” value amounted to 0.1311.

For `Cc1cc(C)c2c(c1)C(c1ccccc1)=NCC(=O)N2`, the “log(1/ED50)” value in test [1] and in test [2] was -0.2316 each time. Besides, the “log(1/MED)” value in test [3] was 0.4216. The result in test [4] was inactive.

With `CN1C(=O)CN=C(c2ccccc2Cl)c2cc([N+](=O)[O-])ccc21` [RO-054082], the “log(1/ED50)” value in test [1] was found to be 1.0407; in test [2], 1.0407; in test [4], 3.4386. For the same compound, the “log(1/MED)” value is listed as 2.1198 in test [3] and 3.8188 in test [5].

For `O=C1CN=C(c2ccccc2C(F)(F)F)c2cc([N+](=O)[O-])ccc2N1`, the “log(1/ED50)” value stood at 0.5428 in test [1], 0.5428 in test [2] and 2.6977 in test [4]. The “log(1/MED)” value in test [3] amounted to 1.5428; in test [5] it was 3.5424.

For `O=C1CN=C(c2ccccc2)c2cc([N+](=O)[O-])ccc2N1` [NITRAZEPAM], the “log(1/ED50)” value is 1.2726 in test [1], 1.2726 in test [2] and 2.7497 in test [4]. The “log(1/MED)” value in test [3] is given as 1.7497; in test [5] it was 3.4487.

In the case of `CN1C(=O)CN=C(c2ccccc2F)c2cc([N+](=O)[O-])ccc21` [FLUNITRAZEPAM], the “log(1/ED50)” value is 2.4955 in test [1], 2.4955 in test [2] and 2.4164 in test [4]. For the same compound, the entries for the “log(1/MED)” value in test [3] and in test [5] were 2.5925 and 4.1945, respectively.

For the compound `Cc1ccccc1C1=NCC(=O)Nc2ccc(Cl)cc21`, the “log(1/ED50)” value in test [1] came out at 0.2779; in test [2] it was 0.2779; in test [4] it was 1.5675. In addition, the “log(1/MED)” value in test [3] is on record as 0.454; in test [5], 2.755.

Consider `O=C1CN=C(c2ccccc2)c2cccc([N+](=O)[O-])c2N1`, for which the “log(1/ED50)” value in test [1] and in test [2] was -0.2503 in each case. The outcome in test [3] and in test [4] was inactive.

In the case of `N#Cc1ccc2c(c1)C(c1ccccc1)=NCC(=O)N2`, the “log(1/ED50)” value in test [1] was 0.5416; in test [2], 0.5416; in test [4], 2.3027. For the same compound, the “log(1/MED)” value came to 0.8146 in test [3] and 2.7177 in test [5].

With `CN1C(=O)CN=C(c2ccc(Cl)cc2)c2cc(Cl)ccc21` [RO-54864], the “log(1/ED50)” value in test [1] and in test [2] was 0.5037 in each case. For the same compound, the outcome in test [3] and in test [4] was inactive.

Regarding `CSc1ccc2c(c1)C(c1ccccc1)=NCC(=O)N2`, the “log(1/ED50)” value in test [1] came to 0.2073; in test [2] it was 0.2073; in test [4], 1.1493. Further, the “log(1/MED)” value is given as 1.1493 in test [3] and 2.1493 in test [5].

As for `C[S+]([O-])c1ccc2c(c1)C(c1ccccc1)=NCC(=O)N2` (configuration not stated), the “log(1/ED50)” value in test [1] stood at 0.2313; in test [2], 0.2313; in test [4], 1.0764. The outcome in test [3] was inactive. Besides, the “log(1/MED)” value in test [5] turned out to be 1.8722.

Take `O=C1CN=C(c2ccccc2F)c2cc([N+](=O)[O-])ccc2N1`: the “log(1/ED50)” value in test [1] is on record as 1.8736; in test [2], 1.8736; in test [4], 2.4934. Moreover, the results for the “log(1/MED)” value in test [3] and in test [5] were 2.1746 and 3.7767, respectively. Further, the ED50 in test [4] (Mus musculus) came out at 0.3 mg/kg.

Consider `Cc1cc2c(cc1C)C(c1ccccc1)=NCC(=O)N2`, for which the result in test [1], in test [2] and in test [3] was inactive. The “log(1/ED50)” value in test [4] stood at 0.2978.

With `CN(C)c1ccc2c(c1)C(c1ccccc1Cl)=NCC(=O)N2C`, the “log(1/ED50)” value was 0.3391 in test [1], 0.3391 in test [2] and 2.8162 in test [4]. Further, the “log(1/MED)” value in test [3] came to 0.6121; in test [5], 1.9131.

Turning to `O=C1CN=C(c2ccccc2)c2cc(Br)ccc2N1`, the “log(1/ED50)” value in test [1] amounted to 1.1002; in test [2], 1.1002; in test [4], 2.1971. The results for the “log(1/MED)” value in test [3] and in test [5] were 1.1971 and 2.7992, respectively.

For the compound `Cc1cc([N+](=O)[O-])cc2c1NC(=O)CN=C2c1ccccc1`, the “log(1/ED50)” value worked out at 1.1688 in test [1], 1.1688 in test [2] and 1.5613 in test [4]. In addition, the entries for the “log(1/MED)” value in test [3] and in test [5] were 1.1688 and 2.7709, respectively.

`O=C1CN=C(c2ccccc2C(F)(F)F)c2cc(C(F)(F)F)ccc2N1`: the “log(1/ED50)” value in test [1] is given as 1.0934; in test [2], 1.0934; in test [4], 1.9685. In addition, the “log(1/MED)” value was found to be 1.2695 in test [3] and 2.8716 in test [5].

As for `O=C1CN=C(c2ccccc2)c2ccc(Cl)cc2N1`, the result in test [1], in test [2] and in test [3] was inactive. In addition, in test [4], the “log(1/ED50)” value was -0.0917.

As for `CSc1ccc2c(c1)C(c1ccccc1)=NCC(=O)N2C`, the “log(1/ED50)” value was determined as 0.7724 in test [1], 0.7724 in test [2] and 0.5963 in test [4]. The “log(1/MED)” value in test [3] is listed as 0.8693; in test [5], 2.4714.

For `CN1C(=O)CN=C(c2ccccc2)c2cc(C#N)ccc21`, the “log(1/ED50)” value in test [1] is reported as 1.1382; in test [2], 1.1382; in test [4], 2.4393. For the same compound, the “log(1/MED)” value in test [3] was found to be 1.7404; in test [5], 2.7404.

For `O=C1CN=C(c2ccccc2)c2ccc(C(F)(F)F)cc2N1`, the “log(1/ED50)” value in test [1] and in test [2] was -0.1703 in each case. For the same compound, the result in test [3] was inactive.

With `O=C1CN=C(c2ccccc2Br)c2cc(Cl)ccc2N1`, the “log(1/ED50)” value in test [1] came to 0.8443; in test [2] it was 0.8443; in test [4], 2.7651. Moreover, the entries for the “log(1/MED)” value in test [3] and in test [5] were 1.8443 and 4.0661, respectively.

With `O=C1CN=C(c2ccccc2F)c2cc(Br)ccc2N1`, the “log(1/ED50)” value is listed as 1.5223 in test [1], 1.5223 in test [2] and 2.8233 in test [4]. The figures for the “log(1/MED)” value in test [3] and in test [5] were 2.1244 and 3.8233, respectively.

For `COc1ccc(C2=NCC(=O)Nc3ccc(Cl)cc32)cc1`, the result in test [1], in test [2] and in test [3] was inactive. Besides, the “log(1/ED50)” value in test [4] is -0.4253.

As for `CS(=O)(=O)c1ccc2c(c1)C(c1ccccc1)=NCC(=O)N2`, the result in test [1], in test [2] and in test [3] was inactive. In test [4], the “log(1/ED50)” value turned out to be 0.2811.

Regarding `CN1C(=O)CN=C(c2ccccc2C(F)(F)F)c2cc([N+](=O)[O-])ccc21`, the “log(1/ED50)” value in test [1] was found to be 0.8609; in test [2], 0.8609; in test [4], 2.7148. For the same compound, the “log(1/MED)” value in test [3] was 1.8609; in test [5], 3.5599.

As to `O=C1CN=C(c2ccccc2)c2cc(C(F)(F)F)ccc2N1` [RO-052904], the “log(1/ED50)” value stood at 1.4829 in test [1], 1.4829 in test [2] and 2.4829 in test [4]. The “log(1/MED)” value in test [3] came to 1.4829; in test [5] it was 3.4829.

As for `CN1C(=O)CN=C(c2ccccc2F)c2cc(F)ccc21`, the results for the “log(1/ED50)” value in test [1], in test [2] and in test [4] were 0.1457, 0.1457 and 0.3325, respectively. In test [3], the outcome was inactive. Further, the “log(1/MED)” value in test [5] was 1.7574.

As to `CN1C(=O)CN=C(c2ccccc2F)c2ccccc21` [RO-054520], the “log(1/ED50)” value was 0.1271 in test [1], 0.1271 in test [2] and 1.525 in test [4]. Moreover, the “log(1/MED)” value in test [3] came to 0.8261; in test [5], 2.4281.

As to `O=C1CN=C(c2cccc([N+](=O)[O-])c2)c2cc([N+](=O)[O-])ccc2N1`, the “log(1/ED50)” value in test [1] is given as -0.0888; in test [2] it was -0.0888; in test [4] it was 0.8142. For the same compound, the result in test [3] was inactive.

Regarding `Cc1cccc(C2=NCC(=O)Nc3ccc(Cl)cc32)c1`, the result in test [1], in test [2] and in test [3] was inactive. In test [4], the “log(1/ED50)” value stood at 0.8519.

For `O=C1CN=C(c2ccccc2[N+](=O)[O-])c2cc([N+](=O)[O-])ccc2N1`, the result in test [1] and in test [2] was inactive. Further, the “log(1/MED)” value in test [3] was found to be 0.9112. Further, the “log(1/ED50)” value in test [4] came out at 2.9691.

As to `Cc1ccc2c(c1)C(c1ccccc1)=NCC(=O)N2`, the result in test [1], in test [2] and in test [3] was inactive. Further, in test [4], the “log(1/ED50)” value amounted to 0.1549.

In the case of `COc1cc2c(cc1Br)C(c1ccccc1)=NCC(=O)N2`, the entries for the “log(1/ED50)” value in test [1], in test [2] and in test [4] were 0.3616, 0.3616 and 1.6626, respectively. The “log(1/MED)” value in test [3] was found to be 0.6346.

As for `CCSc1ccc2c(c1)C(c1ccccc1)=NCC(=O)N2`, in test [3], the result was inactive. Also, the “log(1/ED50)” value in test [4] worked out at 0.2702.

As for `COc1cccc(C2=NCC(=O)Nc3ccc(Cl)cc32)c1`, the result in test [1], in test [2] and in test [3] was inactive. Also, the “log(1/ED50)” value in test [4] stood at 2.2225.

These data come from ChEMBL document CHEMBL3272278, “Electronic factors in the structure-activity relationship of some 1,4-benzodiazepin-2-ones” (1977).
